Measured values published in patent publication US8026282B2, “Phenoxyalkylcarboxylic acid derivatives in the treatment of irritable bowel syndrome” (Medicinova, Inc., priority 2004, dated 2011).

Experiments:
PDE1 = assay: Biochemical assay PDE1; conditions: PDE1, Bov
PDE2 = PDE2 (Homo sapiens, UniProt O00408); assay: Biochemical assay PDE2; conditions: PDE2, Hu
PDE6 = biological target: T1, PDE6 (Bos taurus, UniProt P11541+P23439); assay: Biochemical assay PDE6; conditions: PDE6, Bov
T1 sequence (P11541 1-859): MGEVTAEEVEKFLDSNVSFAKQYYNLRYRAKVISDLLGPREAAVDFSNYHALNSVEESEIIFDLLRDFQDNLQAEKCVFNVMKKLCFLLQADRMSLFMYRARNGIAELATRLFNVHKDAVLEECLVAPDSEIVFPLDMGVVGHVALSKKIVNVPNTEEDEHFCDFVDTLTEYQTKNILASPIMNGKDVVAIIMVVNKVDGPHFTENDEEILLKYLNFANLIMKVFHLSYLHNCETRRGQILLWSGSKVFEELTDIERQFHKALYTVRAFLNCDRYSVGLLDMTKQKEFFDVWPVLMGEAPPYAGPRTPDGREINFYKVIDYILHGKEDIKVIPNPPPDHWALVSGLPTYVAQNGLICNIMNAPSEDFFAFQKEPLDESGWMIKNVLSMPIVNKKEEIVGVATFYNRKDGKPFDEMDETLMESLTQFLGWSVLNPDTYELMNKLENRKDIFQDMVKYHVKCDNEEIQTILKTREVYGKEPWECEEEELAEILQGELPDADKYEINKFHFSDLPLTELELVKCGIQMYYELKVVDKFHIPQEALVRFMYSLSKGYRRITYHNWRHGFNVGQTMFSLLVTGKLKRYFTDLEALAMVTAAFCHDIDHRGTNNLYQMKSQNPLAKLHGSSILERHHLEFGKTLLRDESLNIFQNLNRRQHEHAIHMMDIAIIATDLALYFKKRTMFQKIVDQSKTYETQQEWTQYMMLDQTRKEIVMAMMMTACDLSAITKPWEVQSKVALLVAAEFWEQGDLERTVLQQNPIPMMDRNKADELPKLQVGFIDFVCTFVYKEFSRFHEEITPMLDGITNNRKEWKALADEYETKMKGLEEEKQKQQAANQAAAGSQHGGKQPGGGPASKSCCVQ
T1 sequence (P23439 1-853): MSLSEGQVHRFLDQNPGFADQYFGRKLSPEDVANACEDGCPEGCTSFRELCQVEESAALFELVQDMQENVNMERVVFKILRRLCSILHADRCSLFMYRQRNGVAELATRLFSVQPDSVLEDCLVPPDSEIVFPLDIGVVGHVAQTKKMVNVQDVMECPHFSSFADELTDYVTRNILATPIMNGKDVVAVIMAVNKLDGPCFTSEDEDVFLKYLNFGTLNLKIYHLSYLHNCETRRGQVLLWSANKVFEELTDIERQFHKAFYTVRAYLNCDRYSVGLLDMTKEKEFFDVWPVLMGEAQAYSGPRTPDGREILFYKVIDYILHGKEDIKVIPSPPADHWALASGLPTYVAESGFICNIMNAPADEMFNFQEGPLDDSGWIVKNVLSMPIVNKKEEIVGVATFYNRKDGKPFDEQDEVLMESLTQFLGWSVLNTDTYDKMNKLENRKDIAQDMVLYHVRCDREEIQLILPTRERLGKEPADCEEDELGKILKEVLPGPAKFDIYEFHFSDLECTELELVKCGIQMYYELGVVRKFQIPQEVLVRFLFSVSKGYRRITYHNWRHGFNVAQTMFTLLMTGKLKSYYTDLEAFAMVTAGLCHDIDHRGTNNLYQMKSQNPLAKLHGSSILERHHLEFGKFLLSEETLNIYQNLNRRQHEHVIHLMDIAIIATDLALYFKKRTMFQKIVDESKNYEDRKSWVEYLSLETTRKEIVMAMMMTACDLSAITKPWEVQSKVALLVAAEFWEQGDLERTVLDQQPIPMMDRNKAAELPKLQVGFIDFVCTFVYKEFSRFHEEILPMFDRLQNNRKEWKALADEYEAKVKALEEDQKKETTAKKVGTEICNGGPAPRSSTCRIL

PLA2-I = PLA2-I (Sus scrofa, UniProt P00592); assay: Biochemical assay PLA2-I; conditions: Pig
Sequence of PLA2-I (P00592 23-146): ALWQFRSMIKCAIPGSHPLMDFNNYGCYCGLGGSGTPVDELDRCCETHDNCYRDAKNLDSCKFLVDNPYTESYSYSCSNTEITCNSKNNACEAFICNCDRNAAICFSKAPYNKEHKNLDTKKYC

Adrenergic α2B = biological target: T2, Adrenergic α2B (Homo sapiens, UniProt P18089); assay: Biochemical assay Adrenergic α2B; assay type: binding; conditions: Hu; for Ki: value in parentheses
T2 sequence (P18089 1-450): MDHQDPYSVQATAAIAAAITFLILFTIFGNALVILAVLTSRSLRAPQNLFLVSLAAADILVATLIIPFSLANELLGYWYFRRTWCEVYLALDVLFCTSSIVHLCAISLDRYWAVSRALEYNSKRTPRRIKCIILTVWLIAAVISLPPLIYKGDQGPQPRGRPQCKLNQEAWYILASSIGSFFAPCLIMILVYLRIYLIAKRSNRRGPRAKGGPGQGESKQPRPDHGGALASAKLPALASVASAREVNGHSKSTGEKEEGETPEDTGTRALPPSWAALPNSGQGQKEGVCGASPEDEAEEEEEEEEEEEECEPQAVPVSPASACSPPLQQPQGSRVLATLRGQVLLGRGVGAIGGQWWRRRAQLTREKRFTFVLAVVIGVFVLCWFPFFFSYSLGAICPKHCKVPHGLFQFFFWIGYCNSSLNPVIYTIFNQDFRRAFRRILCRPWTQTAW

Adrenergic β3 = Adrenergic β3 (Homo sapiens, UniProt P13945); assay: Biochemical assay Adrenergic β3; assay type: binding; conditions: Adrenergic β3, Hu; for Ki: value in parentheses
Sequence of Adrenergic β3 (P13945 whole entry): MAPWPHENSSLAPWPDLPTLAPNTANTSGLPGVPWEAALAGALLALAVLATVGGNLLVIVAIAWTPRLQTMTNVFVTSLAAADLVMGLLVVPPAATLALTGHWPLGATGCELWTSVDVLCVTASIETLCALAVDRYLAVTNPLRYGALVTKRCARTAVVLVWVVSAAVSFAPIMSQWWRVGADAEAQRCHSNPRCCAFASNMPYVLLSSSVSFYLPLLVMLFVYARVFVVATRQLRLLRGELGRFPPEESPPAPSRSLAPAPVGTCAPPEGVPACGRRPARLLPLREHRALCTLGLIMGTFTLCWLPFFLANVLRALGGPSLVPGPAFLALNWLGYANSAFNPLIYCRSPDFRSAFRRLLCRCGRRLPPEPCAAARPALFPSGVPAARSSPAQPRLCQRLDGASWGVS

LTD4 = biological target: T3, LTD4 (Cavia porcellus, UniProt Q2NNR5); assay: Biochemical assay LTD4; assay type: binding; conditions: LTD4, Gp; for Ki: value in parentheses
T3 sequence (Q2NNR5 1-340): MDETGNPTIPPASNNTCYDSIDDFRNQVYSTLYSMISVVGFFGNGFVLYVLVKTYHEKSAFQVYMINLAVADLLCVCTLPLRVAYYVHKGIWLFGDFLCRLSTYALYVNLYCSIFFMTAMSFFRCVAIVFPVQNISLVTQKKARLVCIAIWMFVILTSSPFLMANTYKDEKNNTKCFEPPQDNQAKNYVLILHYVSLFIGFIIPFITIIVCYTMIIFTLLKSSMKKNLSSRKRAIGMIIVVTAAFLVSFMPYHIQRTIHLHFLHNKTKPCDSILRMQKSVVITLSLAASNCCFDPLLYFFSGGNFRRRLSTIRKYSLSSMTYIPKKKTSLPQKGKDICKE

Melanocortin MC5 = Melanocortin MC5 (Homo sapiens, UniProt P33032); assay: Biochemical assay Melanocortin MC5; assay type: binding; conditions: Melanocortin MC5, Hu; for Ki: value in parentheses
Sequence of Melanocortin MC5 (P33032 whole entry): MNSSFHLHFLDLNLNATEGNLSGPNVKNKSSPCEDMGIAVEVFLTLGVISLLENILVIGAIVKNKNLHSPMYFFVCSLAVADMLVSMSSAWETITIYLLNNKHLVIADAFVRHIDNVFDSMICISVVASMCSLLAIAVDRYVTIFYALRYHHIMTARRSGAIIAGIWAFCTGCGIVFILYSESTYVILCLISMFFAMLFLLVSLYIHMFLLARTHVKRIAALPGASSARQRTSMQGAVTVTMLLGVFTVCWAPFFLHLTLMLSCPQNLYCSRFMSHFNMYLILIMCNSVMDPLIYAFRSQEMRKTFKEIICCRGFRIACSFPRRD

Sequence of PDE2 (O00408 whole entry): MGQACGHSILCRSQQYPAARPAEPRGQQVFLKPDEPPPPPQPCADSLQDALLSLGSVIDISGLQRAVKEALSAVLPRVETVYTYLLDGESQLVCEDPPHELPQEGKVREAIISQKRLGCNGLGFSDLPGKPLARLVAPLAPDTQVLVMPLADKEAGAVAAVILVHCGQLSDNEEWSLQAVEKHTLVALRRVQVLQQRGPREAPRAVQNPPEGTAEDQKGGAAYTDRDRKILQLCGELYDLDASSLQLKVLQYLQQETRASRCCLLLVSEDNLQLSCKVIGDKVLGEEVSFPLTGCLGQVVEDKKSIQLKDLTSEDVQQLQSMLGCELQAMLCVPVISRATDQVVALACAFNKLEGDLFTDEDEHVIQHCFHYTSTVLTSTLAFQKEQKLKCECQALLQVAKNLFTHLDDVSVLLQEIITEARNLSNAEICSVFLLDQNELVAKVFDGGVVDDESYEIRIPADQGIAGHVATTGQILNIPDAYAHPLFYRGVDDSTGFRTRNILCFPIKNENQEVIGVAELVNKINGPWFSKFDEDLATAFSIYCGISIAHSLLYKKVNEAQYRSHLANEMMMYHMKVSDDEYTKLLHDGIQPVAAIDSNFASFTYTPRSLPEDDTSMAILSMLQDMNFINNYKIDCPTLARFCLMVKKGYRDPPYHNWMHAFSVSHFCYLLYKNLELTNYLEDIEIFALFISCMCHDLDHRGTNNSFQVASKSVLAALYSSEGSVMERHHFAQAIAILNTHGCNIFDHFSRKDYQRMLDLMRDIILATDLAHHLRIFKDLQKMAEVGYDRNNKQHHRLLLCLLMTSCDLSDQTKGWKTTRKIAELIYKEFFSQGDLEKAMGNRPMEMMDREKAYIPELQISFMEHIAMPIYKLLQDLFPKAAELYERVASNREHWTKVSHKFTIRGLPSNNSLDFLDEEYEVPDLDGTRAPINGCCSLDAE

Row | IC50 (PDE1) | IC50 (PDE2) | IC50 (PDE6) | IC50 (PLA2-I) | IC50 (Adrenergic α2B) | Ki (Adrenergic α2B) | IC50 (Adrenergic β3) | Ki (Adrenergic β3) | IC50 (LTD4) | Ki (LTD4) | IC50 (Melanocortin MC5) | Ki (Melanocortin MC5) | Structure (SMILES)
1 | 741 nM | 3430 nM | 2050 nM | 142000 nM | 2810 nM | 1280 nM | 4630 nM | 3470 nM | 6360 nM | 3180 nM | 2580 nM | 2420 nM | CCCc1c(SCCCOc2ccc(C(C)=O)c(OCCCC(=O)O)c2CCC)ccc(C(C)=O)c1O [Compound 1, 4-[6-acetyl-3-[3-(4-acetyl-3-hydroxy-2-propylphenylthio)propoxy]-2-propylphenoxy]butyric acid]
2 | 3080 nM | 3380 nM | 1730 nM | 248000 nM | 1600 nM | 732 nM | 1100 nM | 821 nM | 5350 nM | 2670 nM | 1820 nM | 1710 nM | CCCc1c(SCCCOc2ccc(C(C)O)c(OCCCC(=O)O)c2CCC)ccc(C(C)=O)c1O (stereo not drawn) [Compound 2]
